Source: the OPERA property sets (Mansouri et al. 2018)
≈ marks a conversion by molar mass, not a printed value.

conditions: 20 °C

Point of comparison: `c1ccc2[nH]ncc2c1`, solubility 6.99 mM (≈ 826 µg/mL). Against it:
- c1ccc2[nH]cnc2c1 — 2.4-fold higher, 17 mM (≈ 2010 µg/mL)

same assay, conditions: 25 °C

Point of comparison: `c1ccc2cnccc2c1`, solubility 35 mM (≈ 4520 µg/mL). Against it:
- c1ccc2c(c1)c1cccc3ccc4cccc2c4c31 — far lower, 1.89e-05 mM (≈ 0.00477 µg/mL)
- CCCCc1c2ccccc2cc2ccc3ccccc3c12 — far lower, 2.99e-05 mM (≈ 0.0085 µg/mL)
- c1ccc2ccccc2c1 — 140-fold lower, 0.242 mM (≈ 31 µg/mL)
- Cc1nc2ccccc2[nH]1 — 3.2-fold lower, 11 mM (≈ 1450 µg/mL)
- c1ccc2nccnc2c1 — 140-fold higher, 5070 mM (≈ 660000 µg/mL)
- c1ccc2c(c1)-c1ccc3ccc4cccc5cc-2c1c3c45 — far lower, 6.88e-07 mM (≈ 0.00019 µg/mL)
- Cc1cccc2c1c(C)cc1cc3ccccc3cc12 — far lower, 1.06e-05 mM (≈ 0.00272 µg/mL)
- Cc1c[nH]c2ccccc12 — 9.2-fold lower, 3.8 mM (≈ 498 µg/mL)
- c1ccc2c(c1)ccc1ncccc12 — 80-fold lower, 0.439 mM (≈ 78.7 µg/mL)
- c1ccc2cc3c(cc2c1)-c1cccc2cccc-3c12 — far lower, 3.17e-06 mM (≈ 0.0008 µg/mL)
- Cc1c2ccccc2c2ccc3cccc4ccc1c2c43 — far lower, 3e-06 mM (≈ 0.000798 µg/mL)

same assay, conditions: 27 °C

`CCc1c2ccccc2cc2c1ccc1ccccc12` gave a solubility of 0.00016 mM (≈ 0.041 µg/mL).
